Laboratory results from US20060100226A1, “2-Thiopyrimidinones as therapeutic agents” (priority 2004, published 2006).

Biological target: T1, murine MEKK2 (mMEKK2) (Mus musculus, UniProt Q61083)
T1 sequence (Q61083 1-619): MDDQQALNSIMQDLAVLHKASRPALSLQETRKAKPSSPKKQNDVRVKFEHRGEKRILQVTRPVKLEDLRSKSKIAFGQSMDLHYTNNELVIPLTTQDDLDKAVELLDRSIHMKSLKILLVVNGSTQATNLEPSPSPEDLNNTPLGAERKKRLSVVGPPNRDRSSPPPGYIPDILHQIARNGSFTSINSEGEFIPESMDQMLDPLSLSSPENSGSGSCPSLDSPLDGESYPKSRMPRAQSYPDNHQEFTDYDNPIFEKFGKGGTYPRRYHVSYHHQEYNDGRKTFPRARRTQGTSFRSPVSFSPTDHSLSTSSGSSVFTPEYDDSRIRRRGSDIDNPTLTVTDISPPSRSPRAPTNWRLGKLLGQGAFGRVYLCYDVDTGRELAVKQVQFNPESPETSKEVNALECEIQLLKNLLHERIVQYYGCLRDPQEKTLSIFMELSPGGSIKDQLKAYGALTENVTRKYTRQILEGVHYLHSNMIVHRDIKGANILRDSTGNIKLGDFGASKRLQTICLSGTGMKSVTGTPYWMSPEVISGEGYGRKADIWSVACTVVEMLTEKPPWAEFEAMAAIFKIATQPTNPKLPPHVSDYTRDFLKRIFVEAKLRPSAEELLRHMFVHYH
Experiment: TR-FRET kinase assay (mMEKK2/MBP)
Assay type: biochemical
Details: substrate biotin MBP, 60 minutes at room temperature
Procedure: In one approach, MEKK2 inhibitory activity of compounds of the invention can be assessed using the time-resolved Fluorescence Resonance Energy Transfer (TR-FRET) assay detailed in Example 5. In this assay, the excitation energy of one fluorescent molecule (the donor) is transferred by a resonance mechanism to a nearby second fluorescent molecule (the acceptor), which then releases its fluorescent energy through fluorescent emission. This fluorescent energy is measured using a time-resolved fluorescence measurement protocol (LANCE high count 615/665); excitation occurred with 1,000 flashes at 325 nm, measurement was delayed by 100 μs, and data were acquired for 50 μs at 615 and 665 nm.
A TR-FRET kinase assay was used to screen potential inhibitors of MEKK2. The assay was performed as follows: Compounds to be tested were weighed and solubilized in DMSO (Sigma) to a stock concentration of 10 mM. Serial dilutions starting from 1 mM were prepared with additional DMSO. These dilutions were further diluted to 250 μM in kinase reaction buffer [20 mM Hepes pH 7.5, 5 mM MgCl2, 1 mM DTT (Dithiothreitol-Sigma), 1 mM NaVO4 (sodium vanadate-Sigma). A 25 μl aliquot of this solution was transferred to a black 96-well nonbinding surface microplate (Fisher). A stock aliquot containing […] of murine MEKK2 (mMEKK2) was diluted in the kinase reaction buffer and incubated with the compounds on the microplate for 10 minutes. A 25 μl aliquot of a 138 ng solution of biotin MBP (myelin basic protein—Upstate Biotechnology) was added to the reaction followed by 25 ul of a 25 ng solution of anti-phospho MBP antibody (Upstate Biotechnology) diluted in kinase reaction buffer. Finally an aliquot (50 μl) of a 5 uM solution of ATP (adenosine triphosphate) was added and the reaction was allowed to proceed for 60 minutes at room temperature. The reaction was stopped by the addition of 50 μL of a 12.5 ng solution of europium labeled anti-mouse IgG (Perkin Elmer) and 45 ng of Cy5 labeled streptavidin (Jackson Immunoresearch) in termination buffer (20 mM Hepes pH 7.5, 100 mM EDTA; Sigma). The assay was allowed to equilibrate for 45 minutes before placing the plate on the Victor™ plate reader. The plate was read using the 615/665 LANCE protocol.

| Structure (SMILES) | IC50 [µM] |
| --- | --- |
| COc1cccc(-c2nc(SCc3cccc(NCc4ccc(-c5cccs5)s4)c3)[nH]c(=O)c2C#N)c1 [Example 1aa] | < 1 |
| COc1cccc(-c2nc(SCc3cccc(NCc4cccc(Oc5ccccc5)c4)c3)[nH]c(=O)c2C#N)c1 [Example 1bb] | < 1 |
| COc1cccc(-c2nc(SCc3cccc(NCc4cccc(Oc5cccc(C(F)(F)F)c5)c4)c3)[nH]c(=O)c2C#N)c1 [Example 1dd] | < 1 |
| COc1cc(CNc2cccc(CSc3nc(-c4cccc(OC)c4)c(C#N)c(=O)[nH]3)c2)cc(OC)c1 [Example 1e] | < 20 |
| COc1cccc(-c2nc(SCc3cccc(NCc4coc5cc(C)cc(C)c5c4=O)c3)[nH]c(=O)c2C#N)c1 [Example 1f] | < 5 |
| COc1cccc(-c2nc(SCc3cccc(NCc4nc5ccccc5n4C)c3)[nH]c(=O)c2C#N)c1 [Example 1g] | < 40 |
| COc1cccc(-c2nc(SCc3cccc(NCc4ccccc4N4CCOCC4)c3)[nH]c(=O)c2C#N)c1 [Example 1h] | < 5 |
| COc1cccc(-c2nc(SCc3cccc(NCc4ccc(N5CCCCC5)cc4)c3)[nH]c(=O)c2C#N)c1 [Example 1i] | < 10 |
| COc1cccc(-c2nc(SCc3cccc(NC[C@H]4CCCN4C(=O)OC(C)(C)C)c3)[nH]c(=O)c2C#N)c1 [Example 1j] | < 20 |
| COc1cccc(-c2nc(SCc3cccc(NCc4cccn4CCC#N)c3)[nH]c(=O)c2C#N)c1 [Example 1l] | < 20 |
| COc1cccc(-c2nc(SCc3cccc(NCc4ccc(Oc5cnccn5)cc4)c3)[nH]c(=O)c2C#N)c1 [Example 1m] | < 20 |
| COc1cccc(-c2nc(SCc3cccc(NCc4ccc(OC)nc4)c3)[nH]c(=O)c2C#N)c1 [Example 1n] | < 40 |
| COc1cccc(-c2nc(SCc3cccc(NCC4CCOCC4)c3)[nH]c(=O)c2C#N)c1 [Example 1o] | > 40 |
| COc1cccc(-c2nc(SCc3cccc(NCc4ccc(-c5cc(C(F)(F)F)n(C)n5)s4)c3)[nH]c(=O)c2C#N)c1 [Example 1q] | < 1 |
| COc1cccc(-c2nc(SCc3cccc(NCc4ccc(-n5ccnc5)cc4)c3)[nH]c(=O)c2C#N)c1 [Example 1r] | < 20 |
| COc1cccc(-c2nc(SCc3cccc(NCc4c(C(F)(F)F)nn(C)c4Cl)c3)[nH]c(=O)c2C#N)c1 [Example 1s] | < 10 |
| COc1cccc(-c2nc(SCc3cccc(NCc4ccc(N(C)C)c(C#N)c4F)c3)[nH]c(=O)c2C#N)c1 [Example 1t] | < 5 |
| COc1cccc(-c2nc(SCc3cccc(NCc4ccc(C#N)cc4)c3)[nH]c(=O)c2C#N)c1 [Example 1u] | < 10 |

| Structure (SMILES) | IC50 [µM] |
| --- | --- |
| COc1cccc(-c2nc(SCc3cccc(NCc4cc(C)c(C)o4)c3)[nH]c(=O)c2C#N)c1 [Example 1w] | < 5 |
| COc1cccc(-c2nc(SCc3cccc(NCc4c[nH]c5ccc(Cl)cc45)c3)[nH]c(=O)c2C#N)c1 [Example 1x] | < 1 |
| COc1cccc(-c2nc(SCc3cccc(NCc4ccc5nsnc5c4)c3)[nH]c(=O)c2C#N)c1 [Example 1y] | < 10 |
| COc1cccc(-c2nc(SCc3cccc(NCc4cnc(N(C)C)nc4)c3)[nH]c(=O)c2C#N)c1 [Example 1z] | < 40 |
| COc1cccc(-c2nc(SCc3ccc(NC(=O)c4sccc4Cl)cc3)[nH]c(=O)c2C#N)c1 [Example 2aaa] | < 5 |
| CCCc1c(C(=O)Nc2ccc(CSc3nc(-c4cccc(OC)c4)c(C#N)c(=O)[nH]3)cc2)cnn1-c1ccc(Cl)cc1 [Example 2bbb] | < 1 |
| COc1cccc(-c2nc(SCc3ccc(NC(=O)c4cccc(OC(F)(F)F)c4)cc3)[nH]c(=O)c2C#N)c1 [Example 2ddd] | < 5 |
| COc1cccc(-c2nc(SCc3ccc(NC(=O)c4cc(C(F)(F)F)cc(Cl)c4F)cc3)[nH]c(=O)c2C#N)c1 [Example 2eee] | < 5 |
| COc1cccc(-c2nc(SCc3ccc(NC(=O)c4cnn(-c5ccccc5)c4C(F)(F)F)cc3)[nH]c(=O)c2C#N)c1 [Example 2fff] | < 5 |
| COc1cccc(-c2nc(SCc3ccc(NC(=O)c4ccc(C(F)(F)F)cc4C(F)(F)F)cc3)[nH]c(=O)c2C#N)c1 [Example 2ggg] | < 5 |
| COc1cccc(-c2nc(SCc3ccc(NC(=O)c4snnc4C)cc3)[nH]c(=O)c2C#N)c1 [Example 2hhh] | < 40 |
| COc1cccc(-c2nc(SCc3ccc(NC(=O)C4=Cc5cc(Cl)ccc5OC4)cc3)[nH]c(=O)c2C#N)c1 [Example 2iii] | < 5 |
| COc1cccc(-c2nc(SCc3ccc(NC(=O)C4CCN(C(C)=O)CC4)cc3)[nH]c(=O)c2C#N)c1 [Example 2jjj] | < 20 |
| COc1cccc(-c2nc(SCc3ccc(NC(=O)c4cc(C(F)(F)F)cc(C(F)(F)F)c4)cc3)[nH]c(=O)c2C#N)c1 [Example 2kkk] | < 5 |
| COc1cccc(-c2nc(SCc3ccc(NC(=O)c4ccc(-c5ccccn5)s4)cc3)[nH]c(=O)c2C#N)c1 [Example 2lll] | < 5 |
| COc1cccc(-c2nc(SCc3ccccc3NC(=O)Cc3ccccc3)[nH]c(=O)c2C#N)c1 [Example 2mmm] | < 40 |
| COc1cccc(-c2nc(SCc3ccccc3NC(=O)c3ccccc3)[nH]c(=O)c2C#N)c1 [Example 2nnn] | < 40 |
| COc1cccc(-c2nc(SCc3ccccc3NC(=O)c3cccc(C(F)(F)F)c3)[nH]c(=O)c2C#N)c1 [Example 2ooo] | > 40 |

Now from value to molecule:

| IC50 [µM] | Structure (SMILES) |
| --- | --- |
| < 5 | COc1cccc(-c2nc(SCc3cccc(NC(=O)c4cccc(Cl)c4)c3)[nH]c(=O)c2C#N)c1 [Example 2a, 3-Chloro-N-{3-[5-cyano-4-(3-methoxy-phenyl)-6-oxo-1,6-dihydro-pyrimidin-2-ylsulfanylmethyl]-phenyl}-benzamide] |
| < 5 | COc1cccc(-c2nc(SCc3cccc(NC(=O)c4ccc(C)cc4)c3)[nH]c(=O)c2C#N)c1 [Example 2b] |
| < 5 | COc1cccc(-c2nc(SCc3cccc(NC(=O)c4ccccc4)c3)[nH]c(=O)c2C#N)c1 [Example 2c] |
| < 5 | COc1cccc(-c2nc(SCc3cccc(NC(=O)c4ccc5ccccc5c4)c3)[nH]c(=O)c2C#N)c1 [Example 2d] |
| < 5 | COc1cccc(-c2nc(SCc3cccc(NC(=O)CCc4ccccc4)c3)[nH]c(=O)c2C#N)c1 [Example 2e] |
| < 10 | COc1cccc(CC(=O)Nc2cccc(CSc3nc(-c4cccc(OC)c4)c(C#N)c(=O)[nH]3)c2)c1 [Example 2f] |
| < 5 | COc1cccc(-c2nc(SCc3cccc(NC(=O)c4cccc(C(F)(F)F)c4)c3)[nH]c(=O)c2C#N)c1 [Example 2g] |
| < 5 | COc1cccc(-c2nc(SCc3cccc(NC(=O)COc4ccc(Cl)cc4)c3)[nH]c(=O)c2C#N)c1 [Example 2j] |
| < 10 | COc1cccc(-c2nc(SCc3cccc(NC(=O)Cc4ccccc4)c3)[nH]c(=O)c2C#N)c1 [Example 2k] |
| < 5 | COc1cccc(-c2nc(SCc3cccc(NC(=O)Cc4ccc(Cl)cc4)c3)[nH]c(=O)c2C#N)c1 [Example 2l] |
| < 5 | COc1cccc(-c2nc(SCc3cccc(NC(=O)c4cc5ccccc5s4)c3)[nH]c(=O)c2C#N)c1 [Example 2m] |
| < 5 | COc1cccc(-c2nc(SCc3cccc(NC(=O)c4ccc5c(c4)OCO5)c3)[nH]c(=O)c2C#N)c1 [Example 2o] |
| < 5 | COc1cccc(-c2nc(SCc3cccc(NC(=O)c4cc(Cl)cc(Cl)c4)c3)[nH]c(=O)c2C#N)c1 [Example 2p] |
| < 20 | COc1cccc(-c2nc(SCc3ccc(NC(=O)c4ccccc4)cc3)[nH]c(=O)c2C#N)c1 [Example 2pp] |
| < 5 | COc1cccc(-c2nc(SCc3cccc(NC(=O)c4cc(C(C)(C)C)nn4C)c3)[nH]c(=O)c2C#N)c1 [Example 2q] |
| < 5 | COc1cccc(-c2nc(SCc3ccc(NC(=O)c4ccc(OC(F)(F)F)cc4)cc3)[nH]c(=O)c2C#N)c1 [Example 2qq] |
| < 20 | COc1cccc(-c2nc(SCc3cccc(NC(=O)c4cc(C)on4)c3)[nH]c(=O)c2C#N)c1 [Example 2r] |
